Test results from ChEMBL document CHEMBL1129910, “Synthesis of an aminopropyl analog of the experimental anticancer drug tallimustine, and activation of its 4-nitrobenzylcarbamoyl prodrug by nitroreductase and NADH” (Bioorg Med Chem Lett, 1997).

What was measured:
Assay type in all cases: functional, cell-based
[1] = Cytotoxicity against the growth of LS174T human colon cancer cells was determined using sulforhodamine B assay in the presence of Nitroreductase+NADH
[2] = Cytotoxicity against the growth of LS174T human colon cancer cells was determined using sulforhodamine B assay
[3] = Cytotoxicity against the growth of […] human colon cancer cells was determined using sulforhodamine B assay; details: Cancer cell lines
[4] = Cytotoxicity against the growth of […] human colon cancer cells was determined using sulforhodamine B assay in the presence of Nitroreductase+NADH; details: Cancer cell lines

SMILES	IC50 [1] [µM]	IC50 [2] [µM]	IC50 [3] [µM]	IC50 [4] [µM]
Cn1cc(NC(=O)c2cc(NC(=O)c3cc(NC(=O)c4ccc(N(CCCl)CCCl)cc4)cn3C)cn2C)cc1C(=O)NCCCNC(=O)OCc1ccc([N+](=O)[O-])cc1	0.02	2.3	22.9	9.4
Cn1cc(NC(=O)c2cc(NC(=O)c3cc(NC(=O)c4ccc(N(CCCl)CCCl)cc4)cn3C)cn2C)cc1C(=O)NCCCN		0.02	10	
